From US20050244335A1, “Methods and compositions related to increasing antitumor activity of chemotherapeutic agents” (priority 2004, published 2005)

Experiments:
[1] = test system: human breast cancer MCF-7 xenografts; assay: In vivo chemotherapy, breast cancer MCF-7 xenograft model in nude mice; details: MCF-7 model; agent alone
Description: Cell Culture. […] All media contained 1% penicillin-streptomycin.
Data and Statistical Analysis.

[2] = Pharmacokinetics and tissue distribution of carboplatin in CD-1 mice; format: in vivo; details: carboplatin 60 mg/kg iv
Procedure: Pharmacokinetic studies were carried out using a protocol similar to that previously described (Wang, 1999) using metabolism cages. Male CD-1 mice were pre-treated with DEX (s.c., 0.1 mg/day/mouse for 5 days) or saline (as controls), and, at 1 hr after the fifth dose of DEX, were given a single intravenously (i.v.) bolus administration of carboplatin (60 mg/kg) via a tail vein. At various times (5, 15, and 30 min, 1, 2, 4, 8, and 24 hr after drug dosing; 3 animals for each time point)), blood samples were collected in heparinized tubes and tissue samples removed. Plasma was separated by centrifugation at 20,000 g for 5 min. Tissues including liver, kidneys and spleen were immediately blotted on Whatman No. 1 filter paper, trimmed of extraneous fat or connective tissue, weighed, and homogenized in 0.9% NaCl physiological saline (5 mL per g of wet tissue weight). The resultant homogenates were stored at −70° C. until further analysis. Bone marrow cells were harvested by flushing the femurs with sterile physiological saline as reported previously (Zhang, 1993). The resultant bone marrow cell suspension was weighed and lysed by sonicating 5 times for periods of 10 sec. Following centrifugation at 20,000 g for 30 min, the supernatant was removed and stored at −70° C. until further analysis.
[…] in biological samples was analyzed by an analytical procedure involving micro-filtration and reversed-phase HPLC (Bullen, 1992). 200 μL of plasma or tissue homogenates or bone marrow suspension was added to the reservoir of a Centrifree™ micropartition system. The latter was capped and centrifuged at 2,000 g for 5 min. All filtrates were transferred into a new micro centrifuge tube and 6 μL of the filtrates was injected onto the HPLC column. The HPLC system consisted of a Hewlett Packard 1050 ChemStation with a UV detector (Agilent 1050 series). Determination of Carboplatin was achieved using a LiChrosorb™ diol (10 μm, 250×4.6 mm) analytical column with a LiChroCART 100 RP-18 guard column. The mobile phase for plasma was composed of 98:2 acetonitrile: H2O (vol/vol) and 89:11 acetonitrile: 0.015% H3PO4 (vol/vol) for urine and tissue samples. The flow rates were 2 mL/min (for plasma) and 1.1 mL/min (for urine and tissue samples). The column elute was monitored by UV at 229 nm. Quantitation of plasma or tissue carboplatin was carried out by using an external standard curve (0-4,000.0 μg/mL) that was freshly prepared daily. Linear regression and correlation analysis were carried out to establish the standard peak-area/concentration curves for carboplatin.
The significance of the differences among treated groups and controls were analyzed by ANOVA.

N.N.O=C([O-])C1(C(=O)[O-])CCC1.[Pt+2] [carboplatin]
effect on tumor growth [1]: limited effects on tumor growth | AUC of carboplatin in spleen, DEX pretreated relative to control mice [2]: approximately 16.5% | carboplatin AUC decrease in bone marrow, DEX pretreated vs control mice [2]: 57.4% | decrease of carboplatin uptake in liver by DEX pretreatment [2]: 40% | AUC ([2]; bone marrow, DEX (+)): 517.16 µg·h/mL | CL ([2]; bone marrow, DEX (+)): 0.12 mL/g/h | Cmax ([2]; bone marrow, DEX (+)): 20.61 µg/mL | T1/2 ([2]; bone marrow, DEX (+)): 922.8 min | Vss ([2]; bone marrow, DEX (+)): 2.57 mL/g | AUC ([2]; bone marrow, DEX (−)): 901.60 µg·h/mL | CL ([2]; bone marrow, DEX (−)): 0.07 mL/g/h | Cmax ([2]; bone marrow, DEX (−)): 20.14 µg/mL | T1/2 ([2]; bone marrow, DEX (−)): 1708 min | Vss ([2]; bone marrow, DEX (−)): 2.75 mL/g | AUC ([2]; liver, DEX (+)): 25.02 µg·h/mL | CL ([2]; liver, DEX (+)): 2.40 mL/g/h | Cmax ([2]; liver, DEX (+)): 16.55 µg/mL | T1/2 ([2]; liver, DEX (+)): 23.4 min | Vss ([2]; liver, DEX (+)): 1.35 mL/g | AUC ([2]; liver, DEX (−)): 38.71 µg·h/mL | CL ([2]; liver, DEX (−)): 1.55 mL/g/h | Cmax ([2]; liver, DEX (−)): 25.44 µg/mL | T1/2 ([2]; liver, DEX (−)): 23.4 min | Vss ([2]; liver, DEX (−)): 0.87 mL/g | AUC ([2]; plasma, DEX (+)): 42.69 µg·h/mL | CL ([2]; plasma, DEX (+)): 1.41 mL/g/h | Cmax ([2]; plasma, DEX (+)): 227.58 µg/mL | T1/2 ([2]; plasma, DEX (+)): 7.8 min | Vss ([2]; plasma, DEX (+)): 0.26 mL/g | AUC ([2]; plasma, DEX (−)): 44.18 µg·h/mL | CL ([2]; plasma, DEX (−)): 1.36 mL/g/h | Cmax ([2]; plasma, DEX (−)): 352.62 µg/mL | T1/2 ([2]; plasma, DEX (−)): 5.4 min | Vss ([2]; plasma, DEX (−)): 0.17 mL/g | AUC ([2]; spleen, DEX (+)): 56.72 µg·h/mL | CL ([2]; spleen, DEX (+)): 1.06 mL/g/h | Cmax ([2]; spleen, DEX (+)): 17.79 µg/mL | T1/2 ([2]; spleen, DEX (+)): 49.2 min | Vss ([2]; spleen, DEX (+)): 1.25 mL/g | AUC ([2]; spleen, DEX (−)): 344.11 µg·h/mL | CL ([2]; spleen, DEX (−)): 0.17 mL/g/h | Cmax ([2]; spleen, DEX (−)): 118.73 µg/mL | T1/2 ([2]; spleen, DEX (−)): 45 min | Vss ([2]; spleen, DEX (−)): 0.19 mL/g
